System: HeLa cells
Experiment: Assay 1 cell proliferation measurement (CTG, 72 h), HeLa
Type: cell-based, human
Conditions: Homo sapiens, HeLa; Assay 1, 72 h, Cell Titer Glo; read-out: HeLa IC50 [nM] (Cervical cancer)
Method: Cell Proliferation Measurement
The antiproliferative activity of the compounds of the general formula (I) was examined in vitro in human cancer cells. For this purpose, the appropriate number of cells (Hela: 800; SK-MEL-3: 1000; A549: 800) were plated in 384-well plates with appropriate growth medium ((A549: DMEM/Ham's F12 (Biochrom; #FG 4815 with stabile Glutamine), FCS 10% final (Biochrom; #S 0415); Hela: DMEM/Ham's F12 (Biochrom; #FG 4815 with stabile Glutamine), FCS 10% final (Biochrom; #S 0415); SK-MEL-3: McCoy's 5A (Biochrom; #F 1015), FCS 10% final (Biochrom; #S 0415), L-Alanyl-L-Glutamine final: 2 mM, (Biochrom; #K 0302)) and incubated at 37° C. overnight. After 24 h, cells on one plate (0 h plate) were treated with 30 μl/cavity of CTG solution (Promega Cell Titer Glo (catalogue #G755B and G756B)) and incubated at room temperature for 10 min, and luminescence was measured by means of a VICTOR V (Perkin Elmer), in order to determine cell viability on commencement of treatment. The cells on the test plate were treated with the compounds of the general formula (I) as and incubated at 37° C. for 72 h. The compounds were added to the cells by means of an HP D300 digital dispenser in a 10-step 2.5-fold dilution series generally starting at a maximum final drug concentration of 100 nM. As control, the cells were treated with vehicle (DMSO at 0.3% final concentration). After 72 h, the cells were treated with 30 μl/cavity of CTG solution (Promega Cell Titer Glo (catalogue #G755B and G756B)) and incubated at room temperature for 10 min. and luminescence was measured by means of a VICTOR V (Perkin Elmer), in order to determine cell viability at the end of treatment. The percentage effect on cell growth and the IC50 derived therefrom were determined for each test substance using the values from the 0 h plate […] and the DMSO control […]. The IC50 values were calculated using a 4-parameter fit.

Structure (SMILES)	IC50
CC1(C)CC1CNc1ccc(C2=NNC(=O)OC2)cc1C(F)(F)F (racemic) [Example 248, (rac)-5-[4-{[(2,2-Dimethylcyclopropyl)methyl]amino}-3-(trifluoromethyl)phenyl]-3,6-dihydro-2H-1,3,4-oxadiazin-2-one]	6 nM
CCOC1CN(c2ccc(C3=NNC(=O)OC3)cc2C(F)(F)F)C1 [Example 243, 5-[4-(3-Ethoxyazetidin-1-yl)-3-(trifluoromethyl)phenyl]-3,6-dihydro-2H-1,3,4-oxadiazin-2-one]	6 nM
CCN1CCCC1CNc1ccc(C2=NNC(=O)OC2)cc1C(F)(F)F (stereo not shown) [Example 315, 5-[4-{[(1-ethylpyrrolidin-2-yl)methyl]amino}-3-(trifluoromethyl)phenyl]-3,6-dihydro-2H-1,3,4-oxadiazin-2-one]	> 100 nM
Cn1ccnc1CNc1ccc(C2=NNC(=O)OC2)cc1C(F)(F)F [Example 295, 5-[4-{[(1-methyl-1H-imidazol-2-yl)methyl]amino}-3-(trifluoromethyl)phenyl]-3,6-dihydro-2H-1,3,4-oxadiazin-2-one]	47 nM
O=C1NN=C(c2ccc(NCCc3cnc[nH]3)c(C(F)(F)F)c2)CO1 [Example 291, 5-[4-{[2-(1H-imidazol-5-yl)ethyl]amino}-3-(trifluoromethyl)phenyl]-3,6-dihydro-2H-1,3,4-oxadiazin-2-one]	35 nM
O=C1NN=C(c2ccc(NCCN3CCNC3=O)c(C(F)(F)F)c2)CO1 [Example 313, 5-[4-{[2-(2-oxoimidazolidin-1-yl)ethyl]amino}-3-(trifluoromethyl)phenyl]-3,6-dihydro-2H-1,3,4-oxadiazin-2-one]	> 100 nM
CN(c1ccc(C2=NNC(=O)OC2)cc1C(F)(F)F)C1CCC(O)CC1 (stereo not shown) [Example 289, 5-{4-[(4-hydroxycyclohexyl)(methyl)amino]-3-(trifluoromethyl)phenyl}-3,6-dihydro-2H-1,3,4-oxadiazin-2-one]	26 nM
C[C@@H](O)[C@@H](CO)Nc1ccc(C2=NNC(=O)OC2)cc1C(F)(F)F [Example 292, 5-[4-{[(2R,3R)-1,3-dihydroxybutan-2-yl]amino}-3-(trifluoromethyl)phenyl]-3,6-dihydro-2H-1,3,4-oxadiazin-2-one]	43 nM
CN(CC(C)(C)O)c1ccc(C2=NNC(=O)OC2)cc1C(F)(F)F [Example 283, 5-{4-[(2-hydroxy-2-methylpropyl)(methyl)amino]-3-(trifluoromethyl)phenyl}-3,6-dihydro-2H-1,3,4-oxadiazin-2-one]	13 nM
Cn1ccc(CNc2ccc(C3=NNC(=O)OC3)cc2C(F)(F)F)n1 [Example 286, 5-[4-{[(1-methyl-1H-pyrazol-3-yl)methyl]amino}-3-(trifluoromethyl)phenyl]-3,6-dihydro-2H-1,3,4-oxadiazin-2-one]	23 nM
CCNC(=O)CNc1ccc(C2=NNC(=O)OC2)cc1C(F)(F)F [Example 306, ethyl-N^2-[4-(2-oxo-3,6-dihydro-2H-1,3,4-oxadiazin-5-yl)-2-(trifluoromethyl)phenyl]glycinamide]	> 100 nM
CCCC(CO)Nc1ccc(C2=NNC(=O)OC2)cc1C(F)(F)F (stereo not shown) [Example 285, 5-{4-[(1-hydroxypentan-2-yl)amino]-3-(trifluoromethyl)phenyl}-3,6-dihydro-2H-1,3,4-oxadiazin-2-one]	14 nM
CNC(=O)C1CCCN1c1ccc(C2=NNC(=O)OC2)cc1C(F)(F)F (stereo not shown) [Example 304, N-methyl-1-[4-(2-oxo-3,6-dihydro-2H-1,3,4-oxadiazin-5-yl)-2-(trifluoromethyl)phenyl]prolinamide]	> 100 nM
O=C1NN=C(c2ccc(NC(C3CC3)C3CC3)c(C(F)(F)F)c2)CO1 [Example 296, 5-{4-[(dicyclopropylmethyl)amino]-3-(trifluoromethyl)phenyl}-3,6-dihydro-2H-1,3,4-oxadiazin-2-one]	59 nM
O=C1NN=C(c2ccc(NCc3cccnn3)c(C(F)(F)F)c2)CO1 [Example 308, 5-[4-{[(pyridazin-3-yl)methyl]amino}-3-(trifluoromethyl)phenyl]-3,6-dihydro-2H-1,3,4-oxadiazin-2-one]	> 100 nM
CN1CCCC(Nc2ccc(C3=NNC(=O)OC3)cc2C(F)(F)F)CC1 (stereo not shown) [Example 301, 5-{4-[(1-methylazepan-4-yl)amino]-3-(trifluoromethyl)phenyl}-3,6-dihydro-2H-1,3,4-oxadiazin-2-one]	> 100 nM
CN1CCCC1CCNc1ccc(C2=NNC(=O)OC2)cc1C(F)(F)F (stereo not shown) [Example 318, 5-[4-{[2-(1-methylpyrrolidin-2-yl)ethyl]amino}-3-(trifluoromethyl)phenyl]-3,6-dihydro-2H-1,3,4-oxadiazin-2-one]	> 100 nM
CN(C)C(=O)CNc1ccc(C2=NNC(=O)OC2)cc1C(F)(F)F [Example 307, N,N-dimethyl-N^2-[4-(2-oxo-3,6-dihydro-2H-1,3,4-oxadiazin-5-yl)-2-(trifluoromethyl)phenyl]glycinamide]	> 100 nM
CC1(CNc2ccc(C3=NNC(=O)OC3)cc2C(F)(F)F)CCOCC1 [Example 298, 5-[4-{[(4-methyloxan-4-yl)methyl]amino}-3-(trifluoromethyl)phenyl]-3,6-dihydro-2H-1,3,4-oxadiazin-2-one]	62 nM
CC1CN(C)CCN(c2ccc(C3=NNC(=O)OC3)cc2C(F)(F)F)C1 (stereo not shown) [Example 302, 5-[4-(4,6-dimethyl-1,4-diazepan-1-yl)-3-(trifluoromethyl)phenyl]-3,6-dihydro-2H-1,3,4-oxadiazin-2-one]	> 100 nM
Cn1cc(CNc2ccc(C3=NNC(=O)OC3)cc2C(F)(F)F)cn1 [Example 300, 5-[4-{[(1-methyl-1H-pyrazol-4-yl)methyl]amino}-3-(trifluoromethyl)phenyl]-3,6-dihydro-2H-1,3,4-oxadiazin-2-one]	90 nM
CN1CC(CNc2ccc(C3=NNC(=O)OC3)cc2C(F)(F)F)CC1=O (stereo not shown) [Example 305, 5-[4-{[(1-methyl-5-oxopyrrolidin-3-yl)methyl]amino}-3-(trifluoromethyl)phenyl]-3,6-dihydro-2H-1,3,4-oxadiazin-2-one]	> 100 nM
CCN(CCC#N)c1ccc(C2=NNC(=O)OC2)cc1C(F)(F)F [Example 314, 3-{ethyl[4-(2-oxo-3,6-dihydro-2H-1,3,4-oxadiazin-5-yl)-2-(trifluoromethyl)phenyl]amino}propanenitrile]	> 100 nM
O=C1NN=C(c2ccc(NCc3cccnc3)c(C(F)(F)F)c2)CO1 [Example 288, 5-[4-{[(pyridin-3-yl)methyl]amino}-3-(trifluoromethyl)phenyl]-3,6-dihydro-2H-1,3,4-oxadiazin-2-one]	26 nM

Molecular target: human full length PDE3B (Homo sapiens (Human), UniProt Q13370)
Experiment: Assay 5 PDE3B enzyme inhibition (3H-cAMP SPA)
Type: biochemical
Conditions: Sf9 cell extract
Method: (§1) The commercially available 3H-cAMP Scintillation Proximity Assay (SPA, Perkin Elmer) system was used for enzyme inhibition studies. For the determination of the in vitro effect of example compounds on the PDE3B reactions 2 μl of the respective example compound solution in DMSO (serial dilutions) were placed in wells of microtiter plates (Isoplate-96/200W; Perkin Elmer). 50 μl of a dilution of PDE3B cell extract from Sf9 cells overexpressing human full length PDE3B (SB Drug Discovery, UK) in buffer A (50 mM Tris/HCl pH 7.5, 8.3 mM MgCl2, 1.7 mM EDTA, 0.2% BSA) was added. The dilution of the PDE3B cell extract was chosen such that the reaction kinetics was linear and less than 70% of the substrate was consumed (typical dilution 1:6000). The reaction was started by addition of 50 μl (0.025 μCi) of 1:2000 in buffer A w/o BSA diluted substrate [8-3H]adenosine 3′, 5′-cyclic phosphate (1 μCi/μl; Perkin Elmer). After incubation at room temperature for 60 min, the reaction was stopped by addition of 25 μl of a suspension containing 18 mg/ml yttrium scintillation proximity beads (Perkin Elmer) in water. The microtiter plates were sealed and measured in a Microbeta scintillation counter (PerkinElmer Wallac). IC50 values were determined from sigmoidal curves by plotting percentage PDE3B activity vs log compound concentration.

Sequence of human full length PDE3B (Q13370 whole entry): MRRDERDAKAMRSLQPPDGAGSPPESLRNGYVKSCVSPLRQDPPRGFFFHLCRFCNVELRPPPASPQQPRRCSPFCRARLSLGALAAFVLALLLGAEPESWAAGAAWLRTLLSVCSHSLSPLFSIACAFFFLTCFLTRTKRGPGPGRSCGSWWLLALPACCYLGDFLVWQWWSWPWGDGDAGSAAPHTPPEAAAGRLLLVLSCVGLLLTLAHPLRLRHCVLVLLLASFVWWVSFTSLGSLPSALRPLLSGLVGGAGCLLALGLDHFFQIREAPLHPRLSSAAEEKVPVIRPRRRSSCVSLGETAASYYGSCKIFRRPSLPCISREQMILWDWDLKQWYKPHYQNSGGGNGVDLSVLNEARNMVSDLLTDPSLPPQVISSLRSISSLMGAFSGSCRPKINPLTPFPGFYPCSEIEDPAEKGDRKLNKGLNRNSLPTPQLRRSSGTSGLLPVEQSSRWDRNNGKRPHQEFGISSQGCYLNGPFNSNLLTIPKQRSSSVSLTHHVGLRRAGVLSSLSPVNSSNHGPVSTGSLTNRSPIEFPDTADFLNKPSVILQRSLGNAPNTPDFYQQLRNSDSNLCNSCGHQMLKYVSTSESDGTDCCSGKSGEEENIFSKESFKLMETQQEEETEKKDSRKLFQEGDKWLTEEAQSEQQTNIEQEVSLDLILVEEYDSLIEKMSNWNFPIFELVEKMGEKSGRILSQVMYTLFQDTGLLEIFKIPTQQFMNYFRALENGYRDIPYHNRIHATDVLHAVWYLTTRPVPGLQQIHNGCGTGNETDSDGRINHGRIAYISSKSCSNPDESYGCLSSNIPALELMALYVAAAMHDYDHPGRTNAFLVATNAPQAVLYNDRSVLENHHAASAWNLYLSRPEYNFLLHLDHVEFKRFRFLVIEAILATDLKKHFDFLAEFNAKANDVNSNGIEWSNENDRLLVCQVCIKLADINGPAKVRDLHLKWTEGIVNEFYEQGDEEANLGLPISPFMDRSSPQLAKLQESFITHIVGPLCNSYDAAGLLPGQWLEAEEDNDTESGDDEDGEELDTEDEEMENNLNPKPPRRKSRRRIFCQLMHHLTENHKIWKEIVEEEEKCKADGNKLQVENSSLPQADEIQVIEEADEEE

Structure (SMILES)	IC50
CC1(C)CC1CNc1ccc(C2=NNC(=O)OC2)cc1C(F)(F)F (racemic) [Example 248, (rac)-5-[4-{[(2,2-Dimethylcyclopropyl)methyl]amino}-3-(trifluoromethyl)phenyl]-3,6-dihydro-2H-1,3,4-oxadiazin-2-one]	0.14 µM
CCOC1CN(c2ccc(C3=NNC(=O)OC3)cc2C(F)(F)F)C1 [Example 243, 5-[4-(3-Ethoxyazetidin-1-yl)-3-(trifluoromethyl)phenyl]-3,6-dihydro-2H-1,3,4-oxadiazin-2-one]	0.1 µM

Molecular target: human full length PDE3A (Homo sapiens (Human), UniProt Q14432)
Experiment: Assay 4 PDE3A enzyme inhibition (3H-cAMP SPA)
Type: biochemical
Conditions: Sf9 cell extract
Method: Assay 4 Method for PDE3A Enzyme Inhibition
as §1, with “PDE3A” for “PDE3B”, “1:5000).” for “1:6000).”

Sequence of human full length PDE3A (Q14432 whole entry): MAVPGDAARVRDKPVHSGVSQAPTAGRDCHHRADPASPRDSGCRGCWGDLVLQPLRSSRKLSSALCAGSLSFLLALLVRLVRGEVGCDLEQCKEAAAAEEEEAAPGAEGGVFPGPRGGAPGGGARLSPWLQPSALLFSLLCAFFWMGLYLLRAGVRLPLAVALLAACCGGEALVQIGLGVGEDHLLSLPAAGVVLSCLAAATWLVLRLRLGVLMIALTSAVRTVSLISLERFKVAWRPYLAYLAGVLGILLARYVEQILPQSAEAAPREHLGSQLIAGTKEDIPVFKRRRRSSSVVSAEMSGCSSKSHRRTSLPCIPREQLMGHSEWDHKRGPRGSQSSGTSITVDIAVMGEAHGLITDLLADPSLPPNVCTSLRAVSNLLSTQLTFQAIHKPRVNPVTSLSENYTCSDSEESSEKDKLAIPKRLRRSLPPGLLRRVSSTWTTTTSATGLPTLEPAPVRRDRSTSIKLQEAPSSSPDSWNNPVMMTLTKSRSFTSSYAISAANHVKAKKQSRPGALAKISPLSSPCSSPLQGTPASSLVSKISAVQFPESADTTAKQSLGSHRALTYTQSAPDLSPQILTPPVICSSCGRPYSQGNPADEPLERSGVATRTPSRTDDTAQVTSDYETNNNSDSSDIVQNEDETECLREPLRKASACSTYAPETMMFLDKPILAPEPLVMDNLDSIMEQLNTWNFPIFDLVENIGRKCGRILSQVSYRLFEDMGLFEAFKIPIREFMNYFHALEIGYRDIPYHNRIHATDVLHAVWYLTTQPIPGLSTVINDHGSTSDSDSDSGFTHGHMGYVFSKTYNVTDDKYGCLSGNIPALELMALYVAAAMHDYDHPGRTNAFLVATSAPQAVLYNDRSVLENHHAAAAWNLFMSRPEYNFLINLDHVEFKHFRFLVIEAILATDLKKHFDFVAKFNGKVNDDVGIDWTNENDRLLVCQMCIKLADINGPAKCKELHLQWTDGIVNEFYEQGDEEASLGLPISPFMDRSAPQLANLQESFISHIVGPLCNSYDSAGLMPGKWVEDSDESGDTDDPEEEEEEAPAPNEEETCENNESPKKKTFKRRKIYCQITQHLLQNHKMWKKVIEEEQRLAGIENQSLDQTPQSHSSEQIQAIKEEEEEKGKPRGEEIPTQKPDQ

Structure (SMILES)	IC50
CC1(C)CC1CNc1ccc(C2=NNC(=O)OC2)cc1C(F)(F)F (racemic) [Example 248, (rac)-5-[4-{[(2,2-Dimethylcyclopropyl)methyl]amino}-3-(trifluoromethyl)phenyl]-3,6-dihydro-2H-1,3,4-oxadiazin-2-one]	0.061 µM
CCOC1CN(c2ccc(C3=NNC(=O)OC3)cc2C(F)(F)F)C1 [Example 243, 5-[4-(3-Ethoxyazetidin-1-yl)-3-(trifluoromethyl)phenyl]-3,6-dihydro-2H-1,3,4-oxadiazin-2-one]	0.048 µM

Source: patent US11427553B2, “Dihydrooxadiazinones” (Bayer Aktiengesellschaft, priority 2017, dated 2022)
